Test results taken from PubChem BioAssay (NCI).
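96-well plates; 48 h exposure; 5 concentrations. Endpoints by linear interpolation between flanking doses. Not reached: highest tested concentration assigned. The concentration for full growth arrest is given as TGI.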

Legend:
Test in all cases: inhibition of tumour cell growth, NCI panel, 48 h
TK-10 renal = test system: TK-10 renal
A498 renal = test system: A498 renal
K-562 leukemia = test system: K-562 leukemia
UO-31 renal = test system: UO-31 renal
A549 NSCLC = test system: A549 NSCLC
NCI-H23 lung = test system: NCI-H23 lung
MDA-N = test system: MDA-N
NCI-H460 lung = test system: NCI-H460 lung
CCRF-CEM leukemia = test system: CCRF-CEM leukemia
ACHN renal = test system: ACHN renal
OVCAR-4 ovarian = test system: OVCAR-4 ovarian
MDA-MB-435 = test system: MDA-MB-435
COLO 205 colon = test system: COLO 205 colon
UACC-62 melanoma = test system: UACC-62 melanoma
SK-MEL-28 melanoma = test system: SK-MEL-28 melanoma
MDA-MB-231 breast = test system: MDA-MB-231 breast
SNB-19 CNS = test system: SNB-19 CNS
HCT-116 colon = test system: HCT-116 colon
SF-295 CNS = test system: SF-295 CNS
NCI/ADR-RES ovarian = test system: NCI/ADR-RES ovarian
786-0 renal = test system: 786-0 renal
SK-OV-3 ovarian = test system: SK-OV-3 ovarian
HOP-92 NSCLC = test system: HOP-92 NSCLC
SN12C renal = test system: SN12C renal
SW-620 colon = test system: SW-620 colon
KM12 colon = test system: KM12 colon
MCF7 breast = test system: MCF7 breast
SF-539 CNS = test system: SF-539 CNS
DU-145 prostate = test system: DU-145 prostate
OVCAR-3 ovarian = test system: OVCAR-3 ovarian
SF-268 CNS = test system: SF-268 CNS
IGROV1 ovarian = test system: IGROV1 ovarian
HOP-62 NSCLC = test system: HOP-62 NSCLC
NCI-H522 lung = test system: NCI-H522 lung
LOX IMVI melanoma = test system: LOX IMVI melanoma
CAKI-1 renal = test system: CAKI-1 renal
SR leukemia = test system: SR leukemia
SNB-75 CNS = test system: SNB-75 CNS
RXF 393 renal = test system: RXF 393 renal
OVCAR-5 ovarian = test system: OVCAR-5 ovarian
MALME-3M melanoma = test system: MALME-3M melanoma
HCC-2998 colon = test system: HCC-2998 colon
MOLT-4 leukemia = test system: MOLT-4 leukemia
HCT-15 colon = test system: HCT-15 colon
BT-549 breast = test system: BT-549 breast
U251 CNS = test system: U251 CNS
NCI-H226 lung = test system: NCI-H226 lung
SK-MEL-5 melanoma = test system: SK-MEL-5 melanoma
PC-3 prostate = test system: PC-3 prostate
RPMI-8226 leukemia = test system: RPMI-8226 leukemia
M14 melanoma = test system: M14 melanoma
EKVX NSCLC = test system: EKVX NSCLC
HT29 colon = test system: HT29 colon
T-47D breast = test system: T-47D breast
UACC-257 melanoma = test system: UACC-257 melanoma
OVCAR-8 ovarian = test system: OVCAR-8 ovarian

Measured: TGI

CC(C)Sc1nncc(/C(N)=N/O)n1
> 100 µM: all assays above
